Tests used:
Type in all cases: in vivo
Monochoria vaginalis [1] = test: Weed control effect evaluation in rice field; conditions: paddy water application at 0.5 leaf stage, 14 days after treatment, weeds resistant to pyrazosulfuron-ethyl and penoxsulam
Description: (§1) The activity level standard of harmful plants destruction (i. e. growth inhibition rate) is as follows: • Level 5: the growth inhibition rate is greater than 85%; • Level 4: the growth inhibition rate is equal to or greater than 60% and less than 85%; • Level 3: the growth inhibition rate is equal to or greater than 40% and less than 60%; • Level 2: the growth inhibition rate is equal to or greater than 20% and less than 40%; • Level 1: the growth inhibition rate is equal to or greater than 5% and less than 20%; • Level 0: the growth inhibition rate is less than 5%;
(§2) Transplanted rice safety evaluation and weed control effect evaluation in rice field:
Rice field soil was loaded into a 1/1,000,000 ha pot. The seeds of Monochoria vaginalis were sowed and gently covered with soil, then left to stand still in greenhouse in the state of 0.5-1 cm of water storage. It was kept at 3-4 cm of water storage thereafter. The weeds were treated by dripping the WP or SC water diluents prepared according to the common preparation method of the compounds of the present invention with pipette homogeneously to achieve specified effective amount when Monochoria vaginalis reached 0. 5 leaf stage.
(§3) The fertility condition of Monochoria vaginalis 14 days and rice 21 days after the treatment of the compound of the invention with the naked eye.
Note: The seeds of Monochoria vaginalis were collected from Heilongjing Province of China.

[2] = tested on: ALS resistant Cyperus iria; test: Post-emergence test experiment (Table 4), weed control; conditions: after 3 weeks
Description: as §1
(§4) The above described growth inhibition rate is fresh weight inhibition rate.
(§5) Post-emergence test experiment: Monocotyledonous and dicotyledonous weed seeds and main crop seeds (i. e. wheat, corn, rice, soybean, cotton, oilseed, millet and sorghum.) were put into a plastic pot loaded with soil. Then covered with 0.5-2 cm soil, the seeds were allowed to grow in good greenhouse environment. The test plants were treated at 2-3 leaf stage 2 weeks after sowing. The test compounds of the invention were dissolved with acetone respectively, then added with tween-80, and using 1.5 liters per hectare of an emulsible concentrate of methyl oleate as a synergist, and diluted by certain amount of water to certain concentration. The solution was sprayed to the plants with a sprayer. Then the plants were cultured for 3 weeks in the greenhouse, and the experiment result of weed controlling effect after 3 weeks was listed in tables 3-4.
(§6) […] Echinochloa crusgalli and Cyperus iria were collected from Ningxia Hui Autonomous Region of China, which had evolved resistance to ALS inhibiting herbicides. • Control compound A:

[3] = tested on: ALS resistant Echinochloa crusgalli; test: as above; conditions: after 3 weeks
Description: as §1, §4, §5, §6

Indica rice = test: Post-emergence test experiment (Table 4), crop safety; conditions: after 3 weeks
Description: as §1, §4, §5, §6

Japonica rice = test: as above; conditions: after 3 weeks
Description: as §1, §4, §5, §6

Monochoria vaginalis [4] = test: Post-emergence test experiment (Table 3, 1000 g/ha); conditions: post-emergence spray, after 3 weeks, fresh weight inhibition
Procedure, shortened: (§7)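 Weed seeds sown in soil-filled pots in greenhouse, sprayed at 2-3 leaf stage (2 weeks after sowing) with compound in acetone/tween-80 plus methyl oleate emulsible concentrate (1.5 L/ha) diluted in water. Fresh-weight growth inhibition scored after 3 weeks on 0-5 scale (5: >85%, 0: <5%).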

Galium spurium = test: as above; conditions: post-emergence spray, after 3 weeks, fresh weight inhibition
Procedure, shortened: as §7

Digitaria sanguinalis = test: as above; conditions: post-emergence spray, after 3 weeks, fresh weight inhibition
Procedure, shortened: as §7

Setaria viridis = test: as above; conditions: post-emergence spray, after 3 weeks, fresh weight inhibition
Procedure, shortened: as §7

Leptochloa chinensis = test: as above; conditions: post-emergence spray, after 3 weeks, fresh weight inhibition
Procedure, shortened: as §7

Abutilon theophrasti = test: as above; conditions: post-emergence spray, after 3 weeks, fresh weight inhibition
Procedure, shortened: as §7

rice (japonica rice) = test: Transplanted rice safety evaluation; conditions: 1000 g/ha, transplanted 3-leaf stage japonica rice, treated 5 days after transplantation, 21 days after treatment
Description: as §1, §2
In addition, the rice field soil that loaded into the 1/1,000,000 ha pot was leveled to keep water storage at 3-4 cm depth. The 3-leaf stage rice (japonica rice) was transplanted at 3 cm of transplanting depth the next day. The compound of the present invention was treated by the same way after 5 days of transplantation.
as §3

[5] = 600 g/ha active ingredient, plus water 450 kg/ha

SMILES	Monochoria Vaginalis, activity standard level 0-5 (Monochoria vaginalis [1]; 1000 g/ha)	ALS resistant Cyperus iria, activity level (growth inhibition rate) [2, 5]	ALS resistant Echinochloa crusgalli, activity level (growth inhibition rate) [3, 5]	Indica rice, activity level (growth inhibition rate) (Indica rice; [5])	Japonica rice, activity level (growth inhibition rate) (Japonica rice; [5])	Activity level (growth inhibition rate) Monochoria Vaginalis (Monochoria vaginalis [4])	Activity level (growth inhibition rate) Galium spurium (Galium spurium)	Activity level (growth inhibition rate) Digitaria sanguinalis (Digitaria sanguinalis)	Activity level (growth inhibition rate) Setaria viridis (Setaria viridis)	Activity level (growth inhibition rate) Leptochloa chinensis (Leptochloa chinensis)	Activity level (growth inhibition rate) Abutilon theophrasti (Abutilon theophrasti)	Rice, activity standard level 0-5 (safety) (rice (japonica rice))	Monochoria Vaginalis, activity standard level 0-5 (Monochoria vaginalis [1]; 50 g/ha)	ALS resistant Cyperus iria, activity level (growth inhibition rate) ([2]; 100 g/ha)	ALS resistant Echinochloa crusgalli, activity level (growth inhibition rate) ([3]; 100 g/ha)	Indica rice, activity level (growth inhibition rate) (Indica rice; 100 g/ha)	Japonica rice, activity level (growth inhibition rate) (Japonica rice; 100 g/ha)
CSC(=O)C(C)Oc1nc(F)c(C)c(N)c1C (centres unmarked) [Compound 7]	5 (Level 5: the growth inhibition rate is greater than 85%)	5 (Level 5: the growth inhibition rate is greater than 85%)	5 (Level 5: the growth inhibition rate is greater than 85%)	0 (Level 0: the growth inhibition rate is less than 5%)	0 (Level 0: the growth inhibition rate is less than 5%)	5 (Level 5: the growth inhibition rate is greater than 85%)	5 (Level 5: the growth inhibition rate is greater than 85%)	5 (Level 5: the growth inhibition rate is greater than 85%)	5 (Level 5: the growth inhibition rate is greater than 85%)	5 (Level 5: the growth inhibition rate is greater than 85%)	5 (Level 5: the growth inhibition rate is greater than 85%)	0 (Level 0: the growth inhibition rate is less than 5%)	–	–	–	–	–
COCCCSC(=O)C(C)Oc1nc(F)c(Cl)c(N)c1Cl (centres unmarked) [Compound 88]	5 (Level 5: the growth inhibition rate is greater than 85%)	5 (Level 5: the growth inhibition rate is greater than 85%)	5 (Level 5: the growth inhibition rate is greater than 85%)	0 (Level 0: the growth inhibition rate is less than 5%)	0 (Level 0: the growth inhibition rate is less than 5%)	5 (Level 5: the growth inhibition rate is greater than 85%)	5 (Level 5: the growth inhibition rate is greater than 85%)	5 (Level 5: the growth inhibition rate is greater than 85%)	5 (Level 5: the growth inhibition rate is greater than 85%)	5 (Level 5: the growth inhibition rate is greater than 85%)	5 (Level 5: the growth inhibition rate is greater than 85%)	0 (Level 0: the growth inhibition rate is less than 5%)	–	–	–	–	–
COc1cnc(OC)n2nc(NS(=O)(=O)c3c(OCC(F)F)cccc3C(F)(F)F)nc12 [Penoxsulam, reference compound]	–	–	–	–	–	–	–	–	–	–	–	–	1 (Level 1: the growth inhibition rate is equal to or greater than 5% and less than 20%)	–	–	–	–
CC(Oc1nc(F)c(Cl)c(N)c1Cl)C(=O)Sc1cn(C)cn1 (centres unmarked) [Compound 123]	–	–	–	–	–	5 (Level 5: the growth inhibition rate is greater than 85%)	5 (Level 5: the growth inhibition rate is greater than 85%)	5 (Level 5: the growth inhibition rate is greater than 85%)	5 (Level 5: the growth inhibition rate is greater than 85%)	5 (Level 5: the growth inhibition rate is greater than 85%)	5 (Level 5: the growth inhibition rate is greater than 85%)	–	–	–	–	–	–
CC(Oc1nc(F)c(Cl)c(N)c1Cl)C(=O)Sc1cccn1C (centres unmarked) [Compound 122]	–	–	–	–	–	5 (Level 5: the growth inhibition rate is greater than 85%)	5 (Level 5: the growth inhibition rate is greater than 85%)	5 (Level 5: the growth inhibition rate is greater than 85%)	5 (Level 5: the growth inhibition rate is greater than 85%)	5 (Level 5: the growth inhibition rate is greater than 85%)	5 (Level 5: the growth inhibition rate is greater than 85%)	–	–	–	–	–	–
CCCCCCCCCCCCSC(=O)C(C)Oc1nc(F)c(Cl)c(N)c1Cl (centres unmarked) [Compound 143]	–	–	–	–	–	5 (Level 5: the growth inhibition rate is greater than 85%)	5 (Level 5: the growth inhibition rate is greater than 85%)	5 (Level 5: the growth inhibition rate is greater than 85%)	5 (Level 5: the growth inhibition rate is greater than 85%)	5 (Level 5: the growth inhibition rate is greater than 85%)	5 (Level 5: the growth inhibition rate is greater than 85%)	–	–	–	–	–	–
CCOC(=O)CSC(=O)C(C)Oc1nc(F)c(Cl)c(N)c1Cl (centres unmarked) [Compound 94]	–	–	–	–	–	5 (Level 5: the growth inhibition rate is greater than 85%)	5 (Level 5: the growth inhibition rate is greater than 85%)	5 (Level 5: the growth inhibition rate is greater than 85%)	5 (Level 5: the growth inhibition rate is greater than 85%)	5 (Level 5: the growth inhibition rate is greater than 85%)	5 (Level 5: the growth inhibition rate is greater than 85%)	–	–	–	–	–	–
CC(Oc1nc(F)c(Cl)c(N)c1Cl)C(=O)Sc1ccc(C(F)(F)F)cc1 (centres unmarked) [Compound 112]	–	–	–	–	–	5 (Level 5: the growth inhibition rate is greater than 85%)	5 (Level 5: the growth inhibition rate is greater than 85%)	5 (Level 5: the growth inhibition rate is greater than 85%)	5 (Level 5: the growth inhibition rate is greater than 85%)	5 (Level 5: the growth inhibition rate is greater than 85%)	5 (Level 5: the growth inhibition rate is greater than 85%)	–	–	–	–	–	–
CSC(=O)C(C)Oc1nc(F)c(F)c(N)c1F (centres unmarked) [Compound 1]	–	–	–	–	–	5 (Level 5: the growth inhibition rate is greater than 85%)	5 (Level 5: the growth inhibition rate is greater than 85%)	5 (Level 5: the growth inhibition rate is greater than 85%)	5 (Level 5: the growth inhibition rate is greater than 85%)	5 (Level 5: the growth inhibition rate is greater than 85%)	5 (Level 5: the growth inhibition rate is greater than 85%)	–	–	–	–	–	–
COc1cc(OC)nc(Oc2cccc(Oc3nc(OC)cc(OC)n3)c2C(=O)O)n1 [Bispyribac-sodium, reference compound]	–	–	–	–	–	–	–	–	–	–	–	–	–	1 (Level 1: the growth inhibition rate is equal to or greater than 5% and less than 20%)	1 (Level 1: the growth inhibition rate is equal to or greater than 5% and less than 20%)	2 (Level 2: the growth inhibition rate is equal to or greater than 20% and less than 40%)	4 (Level 4: the growth inhibition rate is equal to or greater than 60% and less than 85%)
